Where two headings read alike, the source gives them in different places. Blank lines part the entries; values can stand above or below the molecule they belong to.
Columns and labels:
[1] = HIP complexation efficacy of clindamycin (UHPLC of organic phase); assay type: physicochemical; conditions: percentage of clindamycin complexed with the named co-ion, 1:1 charge ratio
Description: HIP complexation via Bligh-Dyer method: […] Moreover, chloroform and methanol were mixed before the addition of the aqueous clindamycin solution. […] The dried complex was re-suspended in methanol and analyzed by UHPLC to determine the amount of clindamycin. HIP complexation via modified Bligh-Dyer method: […] Next, 4 mL of chloroform were added and the resulting monophase was shaken at 400 rpm at room temperature for 30 min. 4 mL of chloroform followed by 4 mL of water were added to form a biphasic system. Isolation and analysis of the dried complex was done as described beforehand for the Bligh-Dyer method. UHPLC method: Samples were analyzed on a Shimadzu Nexera-X with a PDA detector. Samples were injected (5 μL) onto a Waters Terra XBridge BEH C8 column (2.5 μm, 4.6x75mm, temperature 25 °C) at a flow rate of 1 mL/min.

[2] = Description: The chloroform phase was isolated, transferred to a new vial and subsequently chloroform was dried under a gentle flow of nitrogen.
[3] = HIP complexation of ICG by method 3 (Bligh-Dyer), judged by colour of the phases; assay type: physicochemical; conditions: co-ion:ICG 1:1 molar ratio
Description: HIP method 3 (Bligh-Dyer method): ICG (5 mg/mL) was dissolved in a 0.01 M HCI solution. Benethamine, dodecylamine, CTAB and tetraethyl ammonium bromide were used as co-ions. Each co-ion was dissolved in methanol in a 1:1 molar ratio to ICG. In an 8-mL glass vial, 1 mL of chloroform, 2 mL of co-ion solution (methanol), and 1 mL of ICG solution (water) were added in that order (methanol without co-ions was used as a control). The vials was gently shaken (i.e., slowly turned over 2-3 times) and incubated for 45 min at room temperature in the dark. Then 1 mL of water was added followed by 1 mL of chloroform. The vial was gently shaken again and incubated for 45 min at room temperature in the dark. The resulting HIP complex is present in the lower organic phase.
DB36 and ICG are negatively charged molecules, which are very soluble in water, but not in organic solvents such as chloroform. All the used co-ions have a positive charge and they could form hydrophobic ion pairing (HIP) complexes with either DB36 or ICG. When solubilized, DB36 and ICG form dark blue or green solutions, respectively. Thus, successful HIP complexation was assessed by either observing precipitates (for method 1) or a change in coloration in the chloroform phase (for methods 2 and 3). […]

[4] = Solubility of ICG HIP complexes in ICell (visual)
Description: (§1) For each co-ion, the chloroform phase was isolated and transferred to new glass vials. Chloroform was dried under a gentle flow of nitrogen.
(§2) 1 g of ICell was added to each vial containing the previously isolated ICG HIP complexes. In addition, 1 g of ICell was added to a vial containing 2.5 mg of native ICG.

[5] = Stability of ICG HIP complexes in ICell (HPLC); assay type: physicochemical; conditions: ICG complexed with the named co-ion in SuBen:GTO:EtOH (60:25:15) ICell, 7 weeks in the dark at room temperature, percentage AUC of ICG at 280 nm
Description: as §1, §2
Stability study: After preparation, ICells were stored at room temperature and protected from light. After 7 weeks, approximately 25 µL of each formulation were taken and dissolved in 500 µL of acetonitrile. The samples were then analyzed by HPLC. HPLC analysis: Samples were analyzed on a Shimadzu Nexera-X HPLC. Samples were injected (5 µL) onto a Waters Terra XBridge BEH C18 column (2.5 µm, 4.6x75mm, temperature 25 °C) at a flow rate of 1 mL/min. The solvent system consisted of mobile phase A (5% MeCN, 0.1% TFA in water) and mobile phase B (0.1% TFA in MeCN). The gradient was 0% B for 1 min, 0 to 100% B in 5 min, 100% B for 4 min, 100% B to 0% B in 0.5 min, 0% B for 1 min. UV detection at 280 nm was used to measure the AUC of ICG and its related degradation products.

[6] = Effect of co-ions on surface tension of ICell (visual appearance of injected depots); assay type: physicochemical; conditions: co-ion alone (2 mM or 10 mM, no ICG) in SuBen:GTH:DMSO or SuBen:GTO:EtOH ICell, in PBS, 7 days at 37°C
Description: ICell formulation: A SuBen:GTH:DMSO (60:20:20), SuBen:GTH:DMSO (60:20:15) and a SuBen:GTO:EtOH (60:25:10) ICell were prepared as described in example 4. Effect on surface tension without ICG: TOAB was dissolved in DMSO and EtOH to produce solutions with a concentration of […]. CTAB was dissolved in EtOH to produce solutions with a concentration of […]. 0.03 g of each co-ion solution were individually added to 0.57 g of either a SuBen:GTH:DMSO (60:20:15) or a SuBen:GTO:EtOH (60:25:10) ICell. Thus, the final co-ion concentration in each ICell was 2mM or 10 mM. 50 µL of the previously prepared ICells were injected in glass vials containing 2 mL PBS. The vials were incubated at 37°C during 7 days and the visual appearance of the injected depots was evaluated.
(§3) Chloroform was dried under a gentle flow of nitrogen.
Effect on surface tension with ICG: SuBen:GTH:DMSO (60:20:20) ICell was proportionally added to the previously isolated ICG HIP complexes to obtain formulations with a final ICG concentration of either 0.1 or 2.5 mg/g as described in Table 4. 50 µL of these ICells were injected in glass vials containing 2 mL PBS. The vials were incubated at 37°C during 3 days and the visual appearance of the injected depots was evaluated.

[7] = HIP complexation of SIINFEKL with SDS (HPLC of supernatant); assay type: physicochemical
Description: (1.5 mg/mL) was dissolved in 0.01 M HCI. […] The […] and co-ion solution were mixed in equal volumes, followed by shaking and centrifugation steps as described in method 1 of example 2. The supernatant was removed the content of […] was evaluated by HPLC.
HPLC method: Samples were analyzed on a Shimadzu Nexera-X with PDA. Samples were injected (40 µL) onto a Waters Terra XBridge BEH C8 column (2.5 µm, 4.6x150mm, temperature 25 °C) at a flow rate of 1 mL/min. The solvent system consisted of mobile phase A (5% MeCN, 0.1% TFA in water) and mobile phase B (0.1% TFA in MeCN). The gradient was 0% B for 1.5 min, 0 to 100% B in 7 min, 100% B for 1.5 min, 100% B to 0% B in 0.5 min, 0% B for 1.5 min. […] was quantified by UV at 220 nm.

[8] = Solubility and stability of ICG HIP complex in different solvents (HPLC); assay type: physicochemical; conditions: native non-complexed ICG in water, 5 days at 25°C in the dark, HPLC 280 nm
Description: as §3
HPLC analysis: Samples were analyzed on a Shimadzu Nexera-X HPLC. […] The solvent system consisted of mobile phase A (5% MeCN, 0.1% TFA in water) and mobile phase B (0.1% TFA in MeCN). The gradient was 0% B for 1 min, 0 to 100% B in 5 min, 100% B for 4 min, 100% B to 0% B in 0.5 min, 0% B for 1 min. UV detection at 280 nm was used to measure the AUC of ICG and its related degradation products.

[9] = system: S. aureus strain S54F9; assay: Microbiological assay, Disc Diffusion Assay; assay type: cell-based, Staphylococcus aureus; conditions: 24 hours at 37 °C
Description: Then, 3 wells were carved out with the use of the broad side of an autoclaved 1 ml pipette tip.
This setup was repeated for three experimental replicates. Each plate was incubated for 24 hours at 37 °C, before inspection.
Then, 3 wells were carved out with the use of the broad side of an autoclaved 1 ml pipette tip. In one well, 0.5 mg linoleic acid was injected as 90 µl 0.22 µm-sterile-filtered dimethyl sulfoxide. In a second well, 90 µl autoclaved phosphate-buffered saline with 0.5 mg vancomycin hydrochloride was injected. […] The plate was incubated for 24 hours at 37 °C, before inspection.

[10] = HIP complexation of gentamicin (HPLC-ELSD of supernatant or aqueous phase); assay type: physicochemical; conditions: Bligh-Dyer method, 1:1 charge ratio; gentamicin not detected in aqueous phase
Description: HIP complexation via organic-solvent free method: […] A white precipitate was obtained, which corresponded to the HIP complex. The supernatant was removed and its gentamicin content was evaluated by HPLC. […] A sample of the aqueous phase was taken to evaluate its gentamicin content by HPLC. HPLC method: Samples were analyzed on a Shimadzu Nexera-i with an evaporative light scattering detector (ELSD). Samples were injected (5 µL) onto a Waters Terra XBridge BEH C8 column (5 µm, 4.6x150mm, temperature 25 °C) at a flow rate of 1 mL/min.

[11] = remark: listed apart in the source
Description: After removing the supernatant, the complex was dissolved in methanol, transferred to a new glass vial and the solvent was dried under a gentle nitrogen flow. […] The chloroform phase was isolated, transferred to a new vial and subsequently chloroform was dried under a gentle flow of nitrogen.

[12] = In vitro release of clindamycin-HIP complexes from ICell into PBS; assay type: in vitro ADME; conditions: clindamycin or its HIP complex with the named co-ion, SuBen:GTH:EtOH (60:20:20) ICell, 20 mg/g, PBS 37°C, after 8 days, mean (n=2)
Description: ICell formulation: […] […] In vitro release: 50 μL of each ICell were individually injected in 8-mL glass vials containing 2 mL PBS, for which the exact amount of injected ICell was weighed. The vials were incubated at 37 °C and at each sampling point 1 mL of PBS was taken. 1 mL of fresh buffer was added immediately to the vial to replace the taken sample. The samples were then analyzed by HPLC and the concentration of drug in the release media was calculated. UHPLC method: HPLC analyses were done using a Shimadzu Nexera-X UHPLC instrument with a PDA detector. The samples were injected (40 μL) onto a Waters Terra BEH C8 column (2.5μm, 4.6x75mm, temperature 25°C) at a flow rate of 0.8 mL/min.

[13] = ICG or its HIP complex with the named co-ion in SuBen:GTO:EtOH (60:25:15) ICell, about 2.5 mg ICG per 1 g ICell, visual

Complexation efficacy Bligh-Dyer method [1]: 80%
Complexation efficacy Modified Bligh-Dyer method [1]: 72%
solubility in ICell ([2]; clindamycin or its HIP complex with the named co-ion, SuBen:GTH:EtOH (60:20:20) ICell, clindamycin 20 mg/g, visual): easily solubilized
SMILES: CCCCCCC/C=C\C(=O)O [C2DA]

ICG complexed [3]: ~100%
solubility in ICell [4]: easily solubilized
ICG % AUC [5]: 95.3%
SMILES: CCCCCCCCCCCCN [Dodecylamine]

solubility in methanol [7]: soluble
SMILES: CC[C@H](C)[C@H](NC(=O)[C@@H](NC(=O)[C@@H](N)CO)[C@@H](C)CC)C(=O)N[C@@H](CC(N)=O)C(=O)N[C@@H](Cc1ccccc1)C(=O)N[C@@H](CCC(=O)O)C(=O)N[C@@H](CCCCN)C(=O)N[C@@H](CC(C)C)C(=O)O [HIP complex of SIINFEKL with SDS]

solubility in ICell [4, 13]: not soluble
stability [8]: no longer visible in the chromatogram
SMILES: CC1(C)C(/C=C/C=C/C=C/C=C2\N(CCCCS(=O)(=O)O)c3ccc4ccccc4c3C2(C)C)=[N+](CCCCS(=O)(=O)[O-])c2ccc3ccccc3c21 [ICG, indocyanine green, reference compound]

Complexation efficacy Bligh-Dyer method [1]: 64%
Complexation efficacy Modified Bligh-Dyer method [1]: 80%
solubility in ICell [2]: easily solubilized
SMILES: CCCCC/C=C\C/C=C\CCCCCCCC(=O)O [Linoleic acid]
antimicrobial activity (clearance of S. aureus) ([9]; Example 24, wells: 0.5 mg linoleic acid in DMSO, 0.5 mg vancomycin hydrochloride, 45 µl HIP complex + 45 µl PBS): has an antimicrobial effect, but to an extent lesser than vancomycin

solubility in methanol [7]: insoluble
SMILES: CC[C@H](C)[C@H](NC(=O)[C@@H](NC(=O)[C@@H](N)CO)[C@@H](C)CC)C(=O)N[C@@H](CC(N)=O)C(=O)N[C@@H](Cc1ccccc1)C(=O)N[C@@H](CCC(=O)O)C(=O)N[C@@H](CCCCN)C(=O)N[C@@H](CC(C)C)C(=O)O [SIINFEKL] [reference compound]

gentamicin complexed [10]: 100%
solubility in ICell [11]: easily solubilized
SMILES: CCCCC(CC)COC(=O)CC(C(=O)OCC(CC)CCCC)S(=O)(=O)O (stereo not shown) [Sodium docusate]

More lines, now with the values behind:

SMILES: CCCCCCCCCCCCCCCC[N+](C)(C)C [CTAB]
ICG complexed [3]: ~100%
solubility in ICell [4, 13]: easily solubilized
ICG % AUC [5]: 97.6%
visual appearance of injected ICell depots (surface tension) [6]: had flatten

SMILES: CCCCCCCC/C=C\CCCCCCCC(=O)[O-].[Na+] [Sodium oleate]
Complexation efficacy Bligh-Dyer method [1]: 72%
Complexation efficacy Modified Bligh-Dyer method [1]: 72%
release of clindamycin from the ICell [12]: 96%

SMILES: CC[N+](CC)(CC)CC.[Br-] [Tetraethyl ammonium bromide]
ICG % AUC [5]: 96.3%

SMILES: CC(=O)NC[C@H]1CN(c2ccc(N3CCOCC3)c(F)c2)C(=O)O1 [linezolid, Linezolid]
antimicrobial activity (clearing zone) after release from ICell ([9]; Example 23, 50 µl ICell per well (gentamicin-docusate 20 mg/g, Linezolid 15 mg/g in SuBen:GTO:EtOH (60:25:15))): clearing zone
